# Measured values as given in ChEMBL document CHEMBL1147813, “Design, molecular modeling, synthesis, and anti-HIV-1 activity of new indolyl aryl sulfones. Novel derivatives of the indole-2-carboxamide” (J Med Chem, 2006).
# Assays:
# [1] = test system: Human immunodeficiency virus 1; assay: Antiviral activity against HIV1; format: functional, organism-based
# [2] = test system: Human immunodeficiency virus; assay: Activity against HIV-AB1 assessed by inhibition of p24 production in human lymphocytes; format: functional, organism-based; conditions: Human immunodeficiency virus 1
# [3] = test system: Human immunodeficiency virus 1; assay: Activity against HIV1 3B assessed by inhibition of p24 production in human lymphocytes; format: functional, organism-based; conditions: Human immunodeficiency virus 1, 3B
# [4] = test system: Human immunodeficiency virus; assay: Activity against HIV-112 assessed by inhibition of p24 production in human lymphocytes; format: functional, organism-based; conditions: Human immunodeficiency virus 1
# Lymphocyte [5] = assay: Cytotoxicity against human lymphocytes; format: functional; conditions: read-out: TC50 (the source's name)
# Lymphocyte [6] = assay: Selectivity index, TC50 for human lymphocytes/EC50 for HIV1 3B; format: functional
# [7] = test system: Human immunodeficiency virus 1; assay: Antiviral activity against HIV1 3B in MT4 cell line; format: functional, organism-based; conditions: Human immunodeficiency virus 1, 3B
Structure (SMILES),EC50 [1],further results
CCOC(=O)c1[nH]c2ccccc2c1Sc1ccccc1N,> 200000 nM,–
Cc1ccc(S(=O)(=O)c2c(C(=O)NCCO)[nH]c3ccc(Cl)cc23)cc1,43 nM,–
O=[N+]([O-])c1cc(Cl)ccc1-n1ccc2ccccc21,4800 nM,–
Cc1ccc(Sc2c(C(=O)NNCCO)[nH]c3ccc(Cl)cc23)cc1,600 nM,–
CCOC(=O)c1cc2ccccc2n1S(=O)(=O)c1ccc(Cl)cc1,> 100000 nM,–
CC(C)OC(=O)c1cn(S(=O)(=O)c2ccccc2)c2ccc(Cl)cc12,> 200000 nM,–
O=C(NNCCO)c1[nH]c2ccc(Cl)cc2c1S(=O)(=O)c1ccccc1,10 nM,–
O=[N+]([O-])c1ccc(Cl)c(-n2ccc3ccccc32)c1,5220 nM,–
Cc1cccc(S(=O)(=O)c2c(C(=O)NCCO)[nH]c3ccc(Cl)cc23)c1,3 nM,–
O=S(=O)(c1ccccc1)n1ccc2cc(Cl)ccc21,> 75000 nM,–
Cc1cccc(Sc2c(C(=O)NCCO)[nH]c3ccc(Cl)cc23)c1,80 nM,–
CCOC(=O)c1cc2cc(Cl)ccc2n1S(=O)(=O)c1cc(Cl)ccc1[N+](=O)[O-],> 31000 nM,–
Cc1ccc(Sc2c(C(=O)NCCO)[nH]c3ccc(Cl)cc23)cc1,120 nM,–
Cc1ccc(S(=O)(=O)c2c(C(=O)NN)[nH]c3ccc(Cl)cc23)cc1,50 nM,–
Cc1ccc(S(=O)(=O)c2c(C(=O)NNCCO)[nH]c3ccc(Cl)cc23)c(C)c1,80 nM,–
NC(=O)c1[nH]c2ccccc2c1S(=O)(=O)c1ccccc1,180 nM,–
CCOC(=O)c1cc2cc(Cl)ccc2n1S(=O)(=O)c1ccc(C)cc1,> 200000 nM,–
NNC(=O)c1[nH]c2ccc(Cl)cc2c1Sc1ccc(F)cc1,5000 nM,–
NC(=O)c1cn(S(=O)(=O)c2ccccc2)c2ccccc12,> 32000 nM,–
NNC(=O)c1[nH]c2ccc(Cl)cc2c1S(=O)(=O)c1ccc(Cl)cc1,190 nM,–
NNC(=O)c1[nH]c2ccccc2c1S(=O)(=O)c1ccccc1,530 nM,–
NNC(=O)c1[nH]c2ccc(Cl)cc2c1Sc1ccc(Cl)cc1,10000 nM,–

Structure (SMILES),EC50 [1],further results
NC(=O)c1[nH]c2ccc(Cl)cc2c1S(=O)(=O)c1c(Cl)cccc1Cl,100 nM,–
NC(=O)c1[nH]c2ccccc2c1Sc1cc(Cl)ccc1N,9000 nM,–
Cc1cc(C)cc(S(=O)(=O)c2c(C(=O)NN)[nH]c3ccc(Cl)cc23)c1,130 nM,–
NNC(=O)c1[nH]c2ccc(Cl)cc2c1S(=O)(=O)c1ccccc1,10 nM,–
CC(C)(C)c1ccc(Sc2c(C(N)=O)[nH]c3ccc(Cl)cc23)cc1,8000 nM,–
Cc1cccc(S(=O)(=O)c2c(C(N)=O)[nH]c3ccc(Cl)cc23)c1,1 nM,–
O=S(=O)(c1ccccc1)n1ccc2ccccc21,> 150000 nM,–
NNC(=O)c1[nH]c2ccc(Cl)cc2c1Sc1ccccc1,550 nM,–
Cc1cc(C)cc(S(=O)(=O)c2c(C(N)=O)[nH]c3ccc(Br)cc23)c1,2 nM,–
CCOC(=O)c1cc2ccccc2n1S(=O)(=O)c1cc(Cl)ccc1[N+](=O)[O-],> 100000 nM,–
NNC(=O)c1cc2ccccc2n1S(=O)(=O)c1ccccc1,> 200000 nM,–
CCOC(=O)c1[nH]c2ccc(Cl)cc2c1S(=O)(=O)c1ccccc1N,> 200000 nM,–
Cc1ccccc1Sc1c(C(N)=O)[nH]c2ccc(Cl)cc12,300 nM,–
Cc1ccccc1S(=O)(=O)c1c(C(N)=O)[nH]c2ccc(Cl)cc12,1 nM,–
NNC(=O)c1[nH]c2ccc(Cl)cc2c1S(=O)(=O)c1ccc(F)cc1,320 nM,–
Cc1ccc(S(=O)(=O)c2c(C(N)=O)[nH]c3ccc(Cl)cc23)cc1,3 nM,–
Cc1ccc(Sc2c(C(N)=O)[nH]c3ccc(Cl)cc23)cc1,> 450 nM,–
Cc1cc(C)cc(S(=O)(=O)c2c(C(N)=O)[nH]c3ccc(Cl)cc23)c1,4 nM,–
O=C1Nc2ccc(Cl)cc2[C@@](C#CC2CC2)(C(F)(F)F)O1 [EFAVIRENZ],–,EC50 [2]: > 20000 nM; EC50 [3]: 7 nM; EC50 [4]: > 20000 nM; CC50 (Lymphocyte [5]): > 100000 nM
NC(=O)c1[nH]c2ccc(Cl)cc2c1S(=O)(=O)c1ccccc1 [L-737126],1 nM,–
Cc1ccnc2c1NC(=O)c1cccnc1N2C1CC1 [NEVIRAPINE],–,EC50 [2]: > 20000 nM; Selectivity index (Lymphocyte [6]): >1111; EC50 [3]: 90 nM; EC50 [4]: > 20000 nM; CC50 (Lymphocyte [5]): > 100000 nM; EC50 [7]: 370 nM
